This passage reports T/C results from PubChem BioAssay AID298 (DTP/NCI, 2004).

This experiment relates to MX-1 breast xenograft, intrarenal, nude mice, tumor weight. Description: NCI In Vivo Anticancer Drug Screen. Data for tumor model Human Mammary Carcinoma MX-1 Xenograft (intrarenal inoculation) in NU/NU BALB/C (nude) mice. The following applies: endpoint: mean tumor weight change, higher = larger tumour. An outline of the steps: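 Antitumor activity is expressed as a T/C ratio. The treated group's tumor size or survival is compared against the vehicle-treated control group in mice bearing transplanted tumors.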
A general note: Xenograft models place foreign cells or tissue in a host animal.

Setting [1] is: dose: 400.0 mg/kg/injection, schedule: Q04DX003 (ip), vehicle: Klucel (hydroxypropylcellulose) (HPC).

Several values for one entry are separate records, joined by “and”; a condition that tells them apart may be missing. Equal values may be shown once. Inconclusive results are not listed.

For the compound `[N-]=[N+]=[N-]`, the T/C was 66 % of control (dose: 1.5 mg/kg/injection, schedule: Q04DX003 (ip), vehicle: water); 66 % of control (dose: 6.0 mg/kg/injection, schedule: Q04DX003 (ip), vehicle: water); 64 % of control (dose: 12.0 mg/kg/injection, schedule: Q04DX003 (ip), vehicle: water).
On to `CC(=O)CC(=O)CCC(=O)O`, for which the T/C runs as follows: (dose: 300.0 mg/kg/injection, schedule: Q04DX003 (sc), vehicle: saline) 88 % of control; (dose: 1200.0 mg/kg/injection, schedule: Q04DX003 (sc), vehicle: saline) 78 % of control.
As to `C#CCNC1=C(C)C(=O)C2=C(C1=O)[C@H](COC(N)=O)[C@]1(OC)[C@@H]3N[C@@H]3CN21`, the T/C by setting is: (dose: 1.85 mg/kg/injection, schedule: Q04DX003 (ip), vehicle: distilled water + Tween-80) 48 % of control; (dose: 1.88 mg/kg/injection, schedule: Q04DX003 (ip), vehicle: distilled water + Tween-80) 97 % of control; (dose: 3.75 mg/kg/injection, schedule: Q04DX003 (ip), vehicle: distilled water + Tween-80) 49 % of control and 55 % of control.
On to `CCCC1(c2ccccc2)C(=O)NCNC1=O`, for which the T/C is 92 % of control (dose: 150.0 mg/kg/injection, schedule: Q04DX003 (ip), vehicle: Klucel (hydroxypropylcellulose) (HPC)); 95 % of control (dose: 300.0 mg/kg/injection, schedule: Q04DX003 (ip), vehicle: Klucel (hydroxypropylcellulose) (HPC)); 88 % of control (dose: 600.0 mg/kg/injection, schedule: Q04DX003 (ip), vehicle: Klucel (hydroxypropylcellulose) (HPC)); 55 % of control (dose: 1200.0 mg/kg/injection, schedule: Q04DX003 (ip), vehicle: Klucel (hydroxypropylcellulose) (HPC)).
As for `CN1CCN(c2ccc([N+](=O)[O-])c3no[n+]([O-])c23)CC1`, the T/C was 117 % of control (dose: 37.5 mg/kg/injection, schedule: Q04DX003 (sc), vehicle: saline with Tween-80); 83 % of control (dose: 75.0 mg/kg/injection, schedule: Q04DX003 (sc), vehicle: saline with Tween-80); 72 % of control (dose: 150.0 mg/kg/injection, schedule: Q04DX003 (sc), vehicle: saline with Tween-80).
With `CN(C)C(=O)Nc1ccc(Cl)cc1`, the T/C by setting is: (dose: 150.0 mg/kg/injection, schedule: Q04DX003 (ip), vehicle: suspension in saline) 71 % of control; (dose: 300.0 mg/kg/injection, schedule: Q04DX003 (ip), vehicle: suspension in saline) 98 % of control; (dose: 600.0 mg/kg/injection, schedule: Q04DX003 (ip), vehicle: suspension in saline) 91 % of control.
`O=C(CCCN1CCC(O)(c2cccc(C(F)(F)F)c2)CC1)c1ccc(F)cc1`: the T/C (dose: 25.0 mg/kg/injection, schedule: Q01DX010 (sc), vehicle: Klucel (hydroxypropylcellulose) (HPC)) was 33 % of control.
For the compound `OC1OCC(COc2ccc(Cl)cc2)OC1O` (configuration not stated), the T/C is, setting by setting: (dose: 100.0 mg/kg/injection, schedule: Q04DX003 (ip), vehicle: saline with Tween-80) 78 % of control; (dose: 200.0 mg/kg/injection, schedule: Q04DX003 (ip), vehicle: saline with Tween-80) 75 % of control; (dose: 400.0 mg/kg/injection, schedule: Q04DX003 (ip), vehicle: saline with Tween-80) 92 % of control.
For the compound `CS(C)(O)NC(N)=O`, the T/C (dose: 150.0 mg/kg/injection, schedule: Q04DX003 (ip), vehicle: water) is 119 % of control; the T/C (dose: 300.0 mg/kg/injection, schedule: Q04DX003 (ip), vehicle: water) is 154 % of control; the T/C (dose: 600.0 mg/kg/injection, schedule: Q04DX003 (ip), vehicle: water) is 110 % of control; the T/C (dose: 1200.0 mg/kg/injection, schedule: Q04DX003 (ip), vehicle: water) was 74 % of control.
`COc1cc(C(C)(C)C)cc(OC)c1C(O)(c1c(OC)cc(C(C)(C)C)cc1OC)c1c(OC)cc(C(C)(C)C)cc1OC`: the T/C by setting is: (dose: 200.0 mg/kg/injection, schedule: Q04DX003 (sc), vehicle: saline with Tween-80) 93 % of control; (dose: 400.0 mg/kg/injection, schedule: Q04DX003 (sc), vehicle: saline with Tween-80) 88 % of control; (dose: 800.0 mg/kg/injection, schedule: Q04DX003 (sc), vehicle: saline with Tween-80) 96 % of control; (dose: 1600.0 mg/kg/injection, schedule: Q04DX003 (sc), vehicle: saline with Tween-80) 100 % of control.
Regarding `CCC(=O)[O][Bi]([c]1ccccc1)[c]1ccccc1`, the T/C (dose: 12.5 mg/kg/injection, schedule: Q04DX003 (ip), vehicle: Klucel (hydroxypropylcellulose) (HPC)) was 100 % of control and the T/C (dose: 25.0 mg/kg/injection, schedule: Q04DX003 (ip), vehicle: Klucel (hydroxypropylcellulose) (HPC)) was 77 % of control.
On to `COC(=O)c1ccc(N=NN(C)COC(C)=O)cc1`, for which the T/C is 50 % of control (dose: 60.0 mg/kg/injection, schedule: Q04DX003 (ip), vehicle: Klucel (hydroxypropylcellulose) (HPC)); 21 % of control (dose: 120.0 mg/kg/injection, schedule: Q04DX003 (ip), vehicle: Klucel (hydroxypropylcellulose) (HPC)); 56 % of control and 58 % of control under setting [1]; 33 % of control and 40 % of control (dose: 666.67 mg/kg/injection, schedule: Q04DX003 (ip), vehicle: Klucel (hydroxypropylcellulose) (HPC)).
For `CN=C(N)c1ccc(N=C(N)c2ccc(C(N)=Nc3ccc(C(N)=NC)cc3)cc2)cc1`, the T/C is, setting by setting: (dose: 15.0 mg/kg/injection, schedule: Q04DX003 (ip), vehicle: saline) 96 % of control; (dose: 30.0 mg/kg/injection, schedule: Q04DX003 (ip), vehicle: saline) 118 % of control.
With `CNNCc1ccc(C(=O)NC(C)C)cc1`, the T/C (dose: 50.0 mg/kg/injection, schedule: Q01DX010 (sc), vehicle: saline) is 97 % of control; the T/C (dose: 100.0 mg/kg/injection, schedule: Q01DX010 (sc), vehicle: saline) was 70 % of control; the T/C (dose: 200.0 mg/kg/injection, schedule: Q01DX010 (sc), vehicle: saline) is 45 % of control; the T/C (dose: 400.0 mg/kg/injection, schedule: Q01DX010 (sc), vehicle: saline) was 4 % of control.
Turning to `CN(CN1C(=O)CCC1=O)CN1C(=O)CCC1=O`, the T/C reads like this: (dose: 150.0 mg/kg/injection, schedule: Q04DX003 (ip), vehicle: saline) 91 % of control; (dose: 300.0 mg/kg/injection, schedule: Q04DX003 (ip), vehicle: saline) 61 % of control.
Take `COc1ccc(C=C(C(=O)CCN(C)C)C(=O)CCN(C)C)cc1`: the T/C reads like this: (dose: 50.0 mg/kg/injection, schedule: Q04DX003 (ip), vehicle: saline) 93 % of control; (dose: 100.0 mg/kg/injection, schedule: Q04DX003 (ip), vehicle: saline) 101 % of control; (dose: 200.0 mg/kg/injection, schedule: Q04DX003 (ip), vehicle: saline) 96 % of control.
In the case of `CCC(C(=O)O)C(=O)O.[NH2-].[NH2-].[Pt+2]`, the T/C is -27 % of control (dose: 37.5 mg/kg/injection, schedule: Q04DX003 (sc), vehicle: saline); -100 % of control (dose: 37.5 mg/kg/injection, schedule: Q04DX003 (sc), vehicle: suspension in saline); -100 % of control (dose: 75.0 mg/kg/injection, schedule: Q04DX003 (sc), vehicle: saline); -100 % of control (dose: 75.0 mg/kg/injection, schedule: Q04DX003 (sc), vehicle: suspension in saline); -100 % of control (dose: 150.0 mg/kg/injection, schedule: Q04DX003 (sc), vehicle: saline); -100 % of control (dose: 150.0 mg/kg/injection, schedule: Q04DX003 (sc), vehicle: suspension in saline).
On to `CCOC(=O)c1c[nH]c2ccc3c(nc(C)n3C)c2c1=O`, for which the T/C was 122 % of control (dose: 100.0 mg/kg/injection, schedule: Q04DX003 (ip), vehicle: Klucel (hydroxypropylcellulose) (HPC)); 122 % of control (dose: 200.0 mg/kg/injection, schedule: Q04DX003 (ip), vehicle: Klucel (hydroxypropylcellulose) (HPC)); 94 % of control under setting [1]; 77 % of control (dose: 800.0 mg/kg/injection, schedule: Q04DX003 (ip), vehicle: Klucel (hydroxypropylcellulose) (HPC)).
Consider `C=COC(=O)C(Cc1ccccc1)NC(=O)OCc1ccccc1` (configuration not stated), for which the T/C was 63 % of control (dose: 300.0 mg/kg/injection, schedule: Q04DX003 (sc), vehicle: saline with Tween-80); 85 % of control (dose: 600.0 mg/kg/injection, schedule: Q04DX003 (sc), vehicle: saline with Tween-80); 112 % of control (dose: 1200.0 mg/kg/injection, schedule: Q04DX003 (sc), vehicle: saline with Tween-80).
`CCN(CC)c1cc(C(=O)O)cc(N(CC)CC)n1`: the T/C is 155 % of control (dose: 50.0 mg/kg/injection, schedule: Q04DX003 (ip), vehicle: other) and 74 % of control (dose: 100.0 mg/kg/injection, schedule: Q04DX003 (ip), vehicle: other).
